Legend:
Assay in all cases: relative viability (nuclei count vs DMSO), 5 days (fraction); higher = more cells survive
Sulindac + Trametinib = compound: CC1=C(CC(=O)O)c2cc(F)ccc2/C1=C\c1ccc([S+](C)[O-])cc1 [Sulindac] + CC(=O)Nc1cccc(-n2c(=O)n(C3CC3)c(=O)c3c(Nc4ccc(I)cc4F)n(C)c(=O)c(C)c32)c1 [Trametinib] (partner 0.02 µM)
In short: (§1)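 For relative viability, nuclei counts in treated wells were divided by those in vehicle wells. Lung cancer cell lines had been pin-tool dosed in 1536-well plates the day after seeding and cultured for 5 days, then fixed and stained in one step (final 0.05% Triton X-100, 1% formaldehyde, 1 ug/ml Hoechst) and imaged at 4×. Doses were one drug alone or a fixed anchor-drug dose plus five library-drug doses (not always all listed) in √10 steps, and values are duplicate-plate medians.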

Sulindac + Pemetrexed = compound: CC1=C(CC(=O)O)c2cc(F)ccc2/C1=C\c1ccc([S+](C)[O-])cc1 [Sulindac] + Nc1nc2[nH]cc(CCc3ccc(C(=O)N[C@@H](CCC(=O)O)C(=O)O)cc3)c2c(=O)[nH]1 [Pemetrexed] (partner 0.2 µM)
In short: as §1

[1] = compound: O=c1[nH]cc(F)c(=O)[nH]1 [5-Fluorouracil] + Cc1nc(NC(=O)N2CCC[C@H]2C(N)=O)sc1-c1ccnc(C(C)(C)C(F)(F)F)c1 [Alpelisib] (partner 2 µM)
In short: as §1

[2] = compound: O=c1[nH]cc(F)c(=O)[nH]1 [5-Fluorouracil] + Nc1ncn([C@H]2C[C@H](O)[C@@H](CO)O2)c(=O)n1 [Decitabine] (partner 2 µM)
In short: as §1

Row | Cell Line | relative viability (Sulindac + Trametinib; first compound 0.08 µM) | relative viability (Sulindac + Trametinib; first compound 0.253 µM) | relative viability (Sulindac + Trametinib; first compound 2.53 µM) | relative viability (Sulindac + Trametinib; first compound 8 µM) | relative viability (Sulindac + Pemetrexed; first compound 0.08 µM) | relative viability (Sulindac + Pemetrexed; first compound 0.253 µM) | relative viability (Sulindac + Pemetrexed; first compound 2.53 µM) | relative viability (Sulindac + Pemetrexed; first compound 8 µM) | relative viability ([1]; first compound 0.02 µM) | relative viability ([1]; first compound 0.2 µM) | relative viability ([1]; first compound 0.6325 µM) | relative viability ([1]; first compound 2 µM) | relative viability ([2]; first compound 0.02 µM) | relative viability ([2]; first compound 0.2 µM) | relative viability ([2]; first compound 0.6325 µM) | relative viability ([2]; first compound 2 µM) | relative viability (Sulindac + Trametinib; first compound 0.8 µM) | relative viability (Sulindac + Pemetrexed; first compound 0.8 µM)
1 | HCC-366 | 0.359 | 0.384 | 0.357 | 0.396 | 0.205 | 0.183 | 0.14 | 0.172 | 0.227 | 0.466 | 0.182 | 0.0921 | 0.344 | 0.32 | 0.194 | 0.128 |  | 
2 | NCI-H1666 | 0.895 | 0.889 | 0.924 | 0.93 | 0.924 | 0.852 | 0.858 | 0.878 | 0.823 | 0.442 | 0.35 | 0.306 | 0.706 | 0.564 | 0.534 | 0.502 | 0.775 | 0.818
3 | HCC-44 | 1.11 | 1.13 | 1.26 | 1.02 | 0.663 | 0.695 | 0.632 | 0.646 | 0.824 | 0.722 | 0.4 | 0.267 | 1.07 | 0.96 | 0.94 | 0.77 | 0.969 | 0.667
4 | A-427 | 0.685 | 0.709 | 0.673 | 0.848 | 1.01 | 1 | 0.956 | 1.1 | 1.06 | 1.12 | 0.957 |  | 0.526 | 0.603 | 0.544 | 0.479 | 0.732 | 0.816
5 | NCI-H460 | 0.178 | 0.195 | 0.366 | 0.132 | 0.0577 | 0.0612 | 0.0599 | 0.0635 | 0.389 | 0.345 | 0.136 | 0.0626 | 0.484 | 0.38 | 0.111 | 0.0586 | 0.114 | 0.0559
6 | NCI-H441 | 0.423 | 0.579 | 0.492 | 0.494 | 0.251 | 0.255 | 0.244 | 0.253 | 0.792 | 0.644 | 0.563 | 0.411 | 0.252 | 0.226 | 0.254 | 0.26 | 0.331 | 0.286
7 | LK-2 | 0.854 | 0.746 | 0.617 | 0.944 | 0.315 | 0.29 | 0.221 | 0.293 | 1.3 | 0.606 | 0.803 | 0.578 | 0.328 | 0.341 | 0.334 | 0.269 | 0.705 | 0.228
8 | NCI-H2085 | 0.513 | 0.569 | 0.435 | 0.384 | 0.921 | 0.903 | 0.898 | 0.897 | 0.689 | 1.03 | 0.828 | 0.613 | 0.516 | 0.567 | 0.657 | 0.526 | 0.576 | 0.766
9 | NCI-H650 | 1.03 | 1.03 | 1 | 1.07 | 1 | 0.88 | 0.932 | 1.09 | 0.915 | 0.644 | 0.523 | 0.397 | 0.313 | 0.312 | 0.326 | 0.288 | 0.955 | 0.845

— the supplement of paper PMC10307832
